Columns and labels:
Experiment in all cases: differential UV-vis titration
TxtE [1] = molecular target: T1, TxtE (Streptomyces scabiei, UniProt C9ZDC6, H176Y); type: binding
T1 sequence (C9ZDC6 1-406 H176Y): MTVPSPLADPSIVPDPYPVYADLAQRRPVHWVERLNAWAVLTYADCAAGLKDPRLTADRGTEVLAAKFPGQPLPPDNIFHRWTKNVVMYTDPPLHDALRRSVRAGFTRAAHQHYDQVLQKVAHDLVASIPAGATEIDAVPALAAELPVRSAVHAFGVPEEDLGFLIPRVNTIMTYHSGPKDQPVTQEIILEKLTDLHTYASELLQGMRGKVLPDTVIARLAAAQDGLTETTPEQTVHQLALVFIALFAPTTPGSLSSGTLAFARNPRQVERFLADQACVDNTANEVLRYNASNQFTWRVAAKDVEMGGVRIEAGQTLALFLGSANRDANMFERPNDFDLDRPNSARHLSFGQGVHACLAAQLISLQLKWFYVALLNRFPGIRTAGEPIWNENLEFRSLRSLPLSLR

Virginiae_TxtE = type: binding, Streptomyces virginiae; conditions: read-out: Kd (μM)^b; 25 mM Tris pH 8
TxtE [2] = molecular target: T2, TxtE (Streptomyces scabiei, UniProt C9ZDC6, H176W); type: binding
T2 sequence (C9ZDC6 1-406 H176W): T1 sequence (C9ZDC6 1-406 H176Y)

TxtE [3] = molecular target: T3, TxtE (Streptomyces scabiei, UniProt C9ZDC6, H176F); type: binding
T3 sequence (C9ZDC6 1-406 H176F): T1 sequence (C9ZDC6 1-406 H176Y)

## N[C@@H](Cc1c[nH]c2ccccc12)C(=O)O [L-tryptophan]
TxtE [1]
  Kd: 4.9 ± 0.3 µM
Virginiae_TxtE
  Kd: 140 ± 6 µM
TxtE [2]
  Kd: 1.3 ± 0.1 µM
TxtE [3]
  Kd: 2.6 ± 0.1 µM
